Test results as given in patent US6338963B1, “Use of carbon monoxide dependent guanylyl cyclase modifiers to stimulate neuritogenesis” (NeoTherapeutics, Inc., priority 1994, dated 2002).
Marks after values point to notes of the source that are not given here.

Key:
[1] = system: cultured neurons from rat cerebral cortex; test: NMDA-induced toxicity in cultured rat cortical neurons, astrocyte conditioned medium; type: cell-based; details: CM from astrocytes treated 6 hours with AIT-082
Protocol: In these experiments, cultured neurons were prepared from rat cerebral cortex. In these cultures the NMDA pulse (100 μM for 10 min) provoked about 80% neuronal death (measured by Trypan blue cell staining or LDH activity). Separately, cultured astrocytes were treated for 6 hours with AIT-082. Then, the medium containing the drug was replaced with fresh medium without the drug and the astrocyte cultures were maintained in this medium for the next 24 hours. This medium represented the CM and was added to neurons soon after the toxic pulse with NMDA. The addition of CM partly counteracted the toxic effects caused by NMDA, reducing the neuronal damage by about 50%. If the medium was boiled for 20 min at 100° C. prior to addition to NMDA-damaged neurons, it completely lost the protective activity. […] To verify whether the neuroprotection caused by AIT-082 was ascribable to the production of TGFβ2 or NGF, antibodies to TGFβ2 or to NGF (100 ng/ml) were added together with CM.
Conversely, when DPCPX (100 nm) was added to astrocyte cultures together with AIT-082, the neuroprotective effect of the resulting CM deriving from the culture of the astrocytes with AIT-082 was reduced by only 20%, as compared to the neuroprotective effect of CM derived from astrocytes exposed to AIT-082 alone (assumed as equal to 100%).

[2] = system: Swiss Webster mice; test: Win-shift test, Swiss Webster mice with age-induced memory deficits; type: in vivo; details: AIT-082 30 mg/kg
Protocol: Twelve-month old male Swiss Webster mice were screened for performance in the win-shift foraging test. Subjects were tested at various time delays, beginning at 10 seconds and increasing the inter-trial time interval to 30, 60, 90 and 120 seconds.
Subjects with severe impairment could not remember the correct response at 10 seconds while subjects with mild deficit could remember the correct response with a 30 second inter-trial interval but not at 60 seconds. Subjects with a moderate deficit could remember the correct response with a 10 second inter-trial interval but not […] at 30 seconds. Thus, the win-shift model can detect age-induced impairments in working memory. As will be appreciated by those skilled in the art, this observation is important since it provides the ability to use age-matched subjects with varying degrees of impairment for evaluation of potential therapeutic agents.
Following the establishment of a baseline, six subjects in each of the three groups were treated with AIT-82 (30 mg/kg, one hour before testing) or physostigmine (0.125 mg/kg, 30 minutes before testing) using the win-shift foraging test. The results are presented in Table L directly below and graphically represented in FIG. 9.

[3] = system: mice; test: Elevated Plus maze (anxiety); type: in vivo
Excerpt: A Plus maze was constructed of black plexiglass consisting of two opposite-facing open arms (30×5 cm, L×W) and two opposite facing closed arms (30×5×15 cm, L×W×H). The walls of the closed arms were clear plexiglass and the four arms were connected by a central area 5×5 cm. The entire Plus maze was mounted on a base 38 cm above the floor. Testing consisted of placing the subject at one end of one of the open arms. The time the subject took to leave the start position (the first 10 cm of the open arm) was recorded. The time it took for the subject to enter halfway into one of the closed arms was also recorded. When the subject arrived at the half-way point in the closed arm, the three-minute test session began. During the three-minute test session, the number of times the subject entered the open arms was recorded. An entry was defined as placing at least two paws onto the platform of the open arm.

[4] = Plasma levels of AIT-082 in mice (HPLC); type: in vivo; details: 30 mg/kg i.p., C57BL/6 mice, estimated
Protocol: Adult C57BL/6 mice were administered 30 mg/kg of AIT-082 in saline i.p. The animals were sacrificed by decapitation at […] after administration of AIT-082. Blood was collected in heparinized tubes, mixed and centrifuged at 2000 rpm for 15 minutes. The plasma supernatant was removed and stored at −70° C. until analysis. A high pressure liquid chromatography system was developed for the analytical measurement of AIT-082 in plasma and brain tissue. The assay developed was selective for AIT-082 in the presence of a number of closely related purine molecules. The sensitivity of the method was 0.1 microgram of AIT-082 per ml of plasma and 0.1 microgram of AIT-082 per milligram of brain tissue (wet weight).
The results of these determinations graphically represented in FIG. 1 where plasma levels of AIT-082 are provided at 5, 10, 15, 20, 30, 60, 90, and 120 minutes after administration of 30 mg/kg i.p. to C57BL/6 mice. From the data, it was estimated that the blood level of AIT-082 reached its peak at approximately 15 minutes.

[5] = system: GDNF; test: Summary of effects on growth factor mRNA and protein (Table R): GDNF; set-up: key: ± = mRNA; + = protein; nt = not tested
Excerpt: The constellation of effects of AIT-082 on production of mRNA encoding growth factors and on production of growth factor proteins is shown in Table R. The results summarized in […] show both transcriptional and translational effects on growth factors that are in the categories of neurotrophins, pleiotrophins, members of the S100 family of EF hand calcium binding proteins, and members of the TGFβ superfamily. As indicated, effects have been shown at both the mRNA (transcriptional) and protein (translational) levels.

## O=C(CCn1cnc2c(=O)[nH]cnc21)Nc1ccc(C(=O)O)cc1 [AIT-082, N-4-carboxyphenyl-3-(6-oxohydropurin-9-yl)propanamide]
[1]
  reduction of neuronal damage caused by NMDA: about 50%
[2]; Mild deficit, interval 60 sec
  subjects performing significantly above chance/total number of subjects: 6/6*
[2]; Mild deficit, interval 90 sec
  subjects performing significantly above chance/total number of subjects: 4/6
[2]; Mild deficit, interval 120 sec
  subjects performing significantly above chance/total number of subjects: 2/6
[2]; Mild deficit, interval 150 sec
  subjects performing significantly above chance/total number of subjects: 1/6
[2]; Mild deficit, interval 180 sec
  subjects performing significantly above chance/total number of subjects: 1/6
[2]; Mild deficit, interval 210 sec
  subjects performing significantly above chance/total number of subjects: 0/6
[2]; Moderate deficit, interval 30 sec
  subjects performing significantly above chance/total number of subjects: 4/6*
[2]; Moderate deficit, interval 60 sec
  subjects performing significantly above chance/total number of subjects: 2/6
[2]; Moderate deficit, interval 90 sec
  subjects performing significantly above chance/total number of subjects: 0/6
[2]; Severe deficit, interval <10 sec
  subjects performing significantly above chance/total number of subjects: 0/6
[3]; 0.005 to 0.5 mg/kg
  anxiogenic effect in Plus maze: not observed
[3]; 30 mg/kg
  anxiogenic effect in Plus maze: slight anxiogenic effect
[3]; 60 mg/kg
  anxiogenic effect in Plus maze: not observed
[4]
  time at which blood level of AIT-082 reached its peak: approximately 15 minutes
[5]; Aged Brain
  GDNF, effect on mRNA/protein production: +
[5]; Lesioned Brain
  GDNF, effect on mRNA/protein production: +
[5]; Normal Brain
  GDNF, effect on mRNA/protein production: +
[5]; Normal Spinal Cord
  GDNF, effect on mRNA/protein production: +
